# Where two headings read alike, the source gives them in different places.
# Assays:
# [1] = molecular target: T1, PI3Kα (Homo sapiens, UniProt P42336); assay: Adapta universal kinase assay; format: biochemical; conditions: read-out: % inhibition against PI3Kα enzyme ± SD ^b
# [2] = molecular target: T1, PI3Kα; assay: Adapta universal kinase assay; format: biochemical; conditions: read-out: % inhibition against PI3Kα enzyme ± SD ^b; remark: listed apart in the source
# T1 sequence (P42336 whole entry): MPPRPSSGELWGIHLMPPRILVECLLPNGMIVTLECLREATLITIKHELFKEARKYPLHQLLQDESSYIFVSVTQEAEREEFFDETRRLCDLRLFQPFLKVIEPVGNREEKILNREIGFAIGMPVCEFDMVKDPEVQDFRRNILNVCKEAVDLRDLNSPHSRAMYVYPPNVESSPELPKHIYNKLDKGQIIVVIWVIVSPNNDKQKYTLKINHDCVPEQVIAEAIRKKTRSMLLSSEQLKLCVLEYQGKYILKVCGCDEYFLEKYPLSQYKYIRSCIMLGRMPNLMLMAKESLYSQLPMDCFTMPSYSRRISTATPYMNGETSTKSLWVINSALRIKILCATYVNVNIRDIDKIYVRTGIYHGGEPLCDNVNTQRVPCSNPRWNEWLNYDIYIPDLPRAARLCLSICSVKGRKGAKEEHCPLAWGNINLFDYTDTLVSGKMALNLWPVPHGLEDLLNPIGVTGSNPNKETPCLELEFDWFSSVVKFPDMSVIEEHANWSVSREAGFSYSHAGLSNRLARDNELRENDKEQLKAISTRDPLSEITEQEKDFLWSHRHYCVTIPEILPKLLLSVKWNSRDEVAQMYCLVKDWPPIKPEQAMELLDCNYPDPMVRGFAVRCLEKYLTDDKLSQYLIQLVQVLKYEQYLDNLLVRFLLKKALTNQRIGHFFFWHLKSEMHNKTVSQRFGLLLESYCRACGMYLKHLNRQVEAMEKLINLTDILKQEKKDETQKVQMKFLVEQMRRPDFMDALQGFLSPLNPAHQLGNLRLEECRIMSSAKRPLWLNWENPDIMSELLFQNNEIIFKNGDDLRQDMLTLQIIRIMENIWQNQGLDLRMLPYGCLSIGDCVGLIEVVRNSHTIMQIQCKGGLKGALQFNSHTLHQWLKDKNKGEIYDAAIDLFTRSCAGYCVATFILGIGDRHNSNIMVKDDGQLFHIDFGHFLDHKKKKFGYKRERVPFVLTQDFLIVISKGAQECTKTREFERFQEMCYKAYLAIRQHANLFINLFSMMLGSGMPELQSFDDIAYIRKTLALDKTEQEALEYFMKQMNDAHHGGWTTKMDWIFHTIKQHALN
# T1 sequence (P27986 2-724, further chain): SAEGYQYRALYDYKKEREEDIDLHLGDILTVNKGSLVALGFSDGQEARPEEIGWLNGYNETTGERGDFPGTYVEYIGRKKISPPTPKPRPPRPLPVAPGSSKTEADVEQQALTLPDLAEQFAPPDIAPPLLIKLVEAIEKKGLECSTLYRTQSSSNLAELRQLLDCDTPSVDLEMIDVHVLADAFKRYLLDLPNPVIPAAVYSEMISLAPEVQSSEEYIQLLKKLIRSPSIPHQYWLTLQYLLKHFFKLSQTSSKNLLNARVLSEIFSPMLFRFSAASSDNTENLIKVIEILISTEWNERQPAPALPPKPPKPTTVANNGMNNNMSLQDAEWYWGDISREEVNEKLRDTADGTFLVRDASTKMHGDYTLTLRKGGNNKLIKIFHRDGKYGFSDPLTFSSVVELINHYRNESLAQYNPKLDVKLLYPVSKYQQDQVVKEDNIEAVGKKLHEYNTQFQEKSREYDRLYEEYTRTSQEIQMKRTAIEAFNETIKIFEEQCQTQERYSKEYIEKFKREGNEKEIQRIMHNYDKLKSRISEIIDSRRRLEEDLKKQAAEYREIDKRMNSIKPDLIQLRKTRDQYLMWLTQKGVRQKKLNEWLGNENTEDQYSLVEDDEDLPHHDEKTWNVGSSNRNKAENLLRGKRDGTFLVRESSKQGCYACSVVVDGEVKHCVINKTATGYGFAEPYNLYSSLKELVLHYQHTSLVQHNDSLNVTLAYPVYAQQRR
inhibition at 100 µM [1],inhibition at 100 µM [2],SMILES
46%,,"CCN(CC)c1nc(NCc2ccccc2)nc(Nc2ccc(S(=O)(=O)Nc3ccccn3)cc2)n1 [compound 20, 4-{[4-(Benzylamino)-6-(diethylamino)-1,3,5-triazin-2-yl]amino}-N-(pyridin-2-yl)benzene-1-sulfonamide]"
,68 ± 3%,"CCN(CC)c1nc(Nc2ccc(S(=O)(=O)NC(=N)N)cc2)nc(N2CCOCC2)n1 [compound 34, 1-(4-{[4-(Diethylamino)-6-(morpholin-4-yl)-1,3,5-triazin-2-yl]amino}benzene-sulfonyl)guanidine]"
